Test results: US20160303095A1, “METHODS OF TREATING HEPATITIS B VIRUS” (Gilead Sciences, Inc., priority 2015, published 2016)

Legend:
KDM6A = biological target: T1, KDM6A (Homo sapiens, UniProt O15550); assay: Biochemical KDM inhibition assay (LANCE), KDM6A; conditions: read-out: Biochemical IC50 KDM 6A
T1 construct: host or cells: Sf9 cells
Description: (§1) Representative compounds were characterized for their inhibition of KDM5 using biotinylated histone substrates. Inhibition was measured in vitro (CEREP Poitier, Le Bois l'Evêque, France) following experimental conditions described in Table 2. Briefly, the test compound, reference compound or water (control) was mixed with about 2-20 ng of recombinant, Human enzymes expressed in Sf9 cells in a buffer containing 45 mM Hepes/Tris (pH 7), 5 μM FAS, 100 μM ascorbic acid, 10 μM 2-oxoglutarate, 0.01% Tween 20 and 0.01% BSA. Thereafter, the reaction was initiated by adding the biotin-labeled substrate, and the mixture was incubated for 10-30 min at room temperature. For basal control measurements, the enzyme was omitted from the reaction mixture. Following incubation the reaction was stopped by adding 1 mM EDTA. After 5 min, the anti-methyl histone antibody labeled with europium chelate and the Ulight streptavidine (Perkin Elmer Waltham, Mass.) were added. After 60 min more, the fluorescence transfer was measured at λex=320 nm and λem=620 and λem=665 nm using a microplate reader (Envision, Perkin Elmer) (LANCE). The enzyme activity was determined by dividing the signal measured at λem=665 nm by that measured at 620 nm (ratio).

KDM2B = biological target: T2, KDM2B (Homo sapiens, UniProt Q8NHM5); assay: Biochemical KDM inhibition assay (LANCE), KDM2B; conditions: read-out: Biochemical IC50 KDM 2B
T2 construct: host or cells: Sf9 cells
T2 sequence (Q8NHM5 1-1336): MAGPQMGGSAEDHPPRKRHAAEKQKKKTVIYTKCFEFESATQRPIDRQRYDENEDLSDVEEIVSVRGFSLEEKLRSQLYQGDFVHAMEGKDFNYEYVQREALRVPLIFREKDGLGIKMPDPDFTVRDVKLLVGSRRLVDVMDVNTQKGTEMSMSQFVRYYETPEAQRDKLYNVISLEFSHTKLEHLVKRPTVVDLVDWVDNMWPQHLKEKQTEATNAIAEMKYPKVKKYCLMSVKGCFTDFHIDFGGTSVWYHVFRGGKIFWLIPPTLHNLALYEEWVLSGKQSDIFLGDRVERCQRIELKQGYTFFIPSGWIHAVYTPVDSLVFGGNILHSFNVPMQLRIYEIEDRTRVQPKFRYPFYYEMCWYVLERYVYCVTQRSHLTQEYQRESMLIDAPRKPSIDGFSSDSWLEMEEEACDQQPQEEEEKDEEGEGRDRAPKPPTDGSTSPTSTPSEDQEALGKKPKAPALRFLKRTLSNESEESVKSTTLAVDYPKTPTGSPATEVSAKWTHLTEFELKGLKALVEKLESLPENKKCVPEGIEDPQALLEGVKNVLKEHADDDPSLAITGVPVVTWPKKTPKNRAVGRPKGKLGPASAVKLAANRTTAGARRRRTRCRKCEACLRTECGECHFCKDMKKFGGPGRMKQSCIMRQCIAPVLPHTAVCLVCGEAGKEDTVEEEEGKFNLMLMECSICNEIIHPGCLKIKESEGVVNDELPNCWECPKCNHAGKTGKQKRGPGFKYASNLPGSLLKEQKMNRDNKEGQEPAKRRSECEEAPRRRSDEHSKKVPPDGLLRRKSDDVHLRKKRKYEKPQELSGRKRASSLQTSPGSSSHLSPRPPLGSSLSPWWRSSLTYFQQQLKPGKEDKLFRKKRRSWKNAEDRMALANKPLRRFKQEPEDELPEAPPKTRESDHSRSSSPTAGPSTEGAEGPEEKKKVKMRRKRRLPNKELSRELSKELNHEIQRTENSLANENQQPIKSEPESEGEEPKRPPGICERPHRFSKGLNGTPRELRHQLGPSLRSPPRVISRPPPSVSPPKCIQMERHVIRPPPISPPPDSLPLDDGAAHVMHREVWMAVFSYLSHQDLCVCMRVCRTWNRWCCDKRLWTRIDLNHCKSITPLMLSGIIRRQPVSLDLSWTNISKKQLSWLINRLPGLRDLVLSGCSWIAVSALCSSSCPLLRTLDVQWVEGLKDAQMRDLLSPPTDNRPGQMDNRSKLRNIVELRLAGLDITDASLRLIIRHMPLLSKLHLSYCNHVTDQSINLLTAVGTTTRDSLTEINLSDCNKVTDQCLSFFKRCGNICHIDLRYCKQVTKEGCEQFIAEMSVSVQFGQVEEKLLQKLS
Description: as §1

KDM4A = biological target: T3, KDM4A (Homo sapiens, UniProt O75164); assay: Biochemical KDM inhibition assay (LANCE), KDM4A; conditions: read-out: Biochemical IC50 KDM 4A
T3 construct: host or cells: Sf9 cells
T3 sequence (O75164 1-1064): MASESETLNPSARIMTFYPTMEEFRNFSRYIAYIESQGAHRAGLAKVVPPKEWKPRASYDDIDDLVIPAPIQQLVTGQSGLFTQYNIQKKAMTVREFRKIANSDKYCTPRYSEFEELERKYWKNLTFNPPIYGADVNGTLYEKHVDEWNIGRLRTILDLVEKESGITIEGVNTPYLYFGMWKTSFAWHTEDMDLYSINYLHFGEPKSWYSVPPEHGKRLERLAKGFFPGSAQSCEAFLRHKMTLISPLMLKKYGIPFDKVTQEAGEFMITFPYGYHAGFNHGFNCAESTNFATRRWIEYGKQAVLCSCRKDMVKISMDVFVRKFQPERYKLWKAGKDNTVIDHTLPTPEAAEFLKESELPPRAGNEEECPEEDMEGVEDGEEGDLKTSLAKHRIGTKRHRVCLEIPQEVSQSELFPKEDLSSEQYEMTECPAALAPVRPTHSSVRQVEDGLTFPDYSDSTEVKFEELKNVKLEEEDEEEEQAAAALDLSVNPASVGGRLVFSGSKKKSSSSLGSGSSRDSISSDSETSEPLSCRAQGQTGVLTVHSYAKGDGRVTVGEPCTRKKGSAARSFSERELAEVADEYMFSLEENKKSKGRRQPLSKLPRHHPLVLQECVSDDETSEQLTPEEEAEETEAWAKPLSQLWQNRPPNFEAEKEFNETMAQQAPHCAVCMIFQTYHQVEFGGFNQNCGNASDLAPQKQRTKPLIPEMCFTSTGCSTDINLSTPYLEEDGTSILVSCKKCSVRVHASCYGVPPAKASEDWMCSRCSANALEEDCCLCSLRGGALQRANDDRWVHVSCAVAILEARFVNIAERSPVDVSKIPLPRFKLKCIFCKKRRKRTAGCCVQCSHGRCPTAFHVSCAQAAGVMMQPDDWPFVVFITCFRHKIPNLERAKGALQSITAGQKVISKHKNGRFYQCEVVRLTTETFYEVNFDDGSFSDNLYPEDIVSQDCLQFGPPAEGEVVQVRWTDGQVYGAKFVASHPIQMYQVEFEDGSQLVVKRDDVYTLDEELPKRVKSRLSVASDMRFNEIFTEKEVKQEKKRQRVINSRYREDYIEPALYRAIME

KDM6B = biological target: T4, KDM6B (Homo sapiens, UniProt O15054); assay: Biochemical KDM inhibition assay (LANCE), KDM6B; conditions: read-out: Biochemical IC50 KDM 6B
T4 construct: host or cells: Sf9 cells
T4 sequence (O15054 whole entry): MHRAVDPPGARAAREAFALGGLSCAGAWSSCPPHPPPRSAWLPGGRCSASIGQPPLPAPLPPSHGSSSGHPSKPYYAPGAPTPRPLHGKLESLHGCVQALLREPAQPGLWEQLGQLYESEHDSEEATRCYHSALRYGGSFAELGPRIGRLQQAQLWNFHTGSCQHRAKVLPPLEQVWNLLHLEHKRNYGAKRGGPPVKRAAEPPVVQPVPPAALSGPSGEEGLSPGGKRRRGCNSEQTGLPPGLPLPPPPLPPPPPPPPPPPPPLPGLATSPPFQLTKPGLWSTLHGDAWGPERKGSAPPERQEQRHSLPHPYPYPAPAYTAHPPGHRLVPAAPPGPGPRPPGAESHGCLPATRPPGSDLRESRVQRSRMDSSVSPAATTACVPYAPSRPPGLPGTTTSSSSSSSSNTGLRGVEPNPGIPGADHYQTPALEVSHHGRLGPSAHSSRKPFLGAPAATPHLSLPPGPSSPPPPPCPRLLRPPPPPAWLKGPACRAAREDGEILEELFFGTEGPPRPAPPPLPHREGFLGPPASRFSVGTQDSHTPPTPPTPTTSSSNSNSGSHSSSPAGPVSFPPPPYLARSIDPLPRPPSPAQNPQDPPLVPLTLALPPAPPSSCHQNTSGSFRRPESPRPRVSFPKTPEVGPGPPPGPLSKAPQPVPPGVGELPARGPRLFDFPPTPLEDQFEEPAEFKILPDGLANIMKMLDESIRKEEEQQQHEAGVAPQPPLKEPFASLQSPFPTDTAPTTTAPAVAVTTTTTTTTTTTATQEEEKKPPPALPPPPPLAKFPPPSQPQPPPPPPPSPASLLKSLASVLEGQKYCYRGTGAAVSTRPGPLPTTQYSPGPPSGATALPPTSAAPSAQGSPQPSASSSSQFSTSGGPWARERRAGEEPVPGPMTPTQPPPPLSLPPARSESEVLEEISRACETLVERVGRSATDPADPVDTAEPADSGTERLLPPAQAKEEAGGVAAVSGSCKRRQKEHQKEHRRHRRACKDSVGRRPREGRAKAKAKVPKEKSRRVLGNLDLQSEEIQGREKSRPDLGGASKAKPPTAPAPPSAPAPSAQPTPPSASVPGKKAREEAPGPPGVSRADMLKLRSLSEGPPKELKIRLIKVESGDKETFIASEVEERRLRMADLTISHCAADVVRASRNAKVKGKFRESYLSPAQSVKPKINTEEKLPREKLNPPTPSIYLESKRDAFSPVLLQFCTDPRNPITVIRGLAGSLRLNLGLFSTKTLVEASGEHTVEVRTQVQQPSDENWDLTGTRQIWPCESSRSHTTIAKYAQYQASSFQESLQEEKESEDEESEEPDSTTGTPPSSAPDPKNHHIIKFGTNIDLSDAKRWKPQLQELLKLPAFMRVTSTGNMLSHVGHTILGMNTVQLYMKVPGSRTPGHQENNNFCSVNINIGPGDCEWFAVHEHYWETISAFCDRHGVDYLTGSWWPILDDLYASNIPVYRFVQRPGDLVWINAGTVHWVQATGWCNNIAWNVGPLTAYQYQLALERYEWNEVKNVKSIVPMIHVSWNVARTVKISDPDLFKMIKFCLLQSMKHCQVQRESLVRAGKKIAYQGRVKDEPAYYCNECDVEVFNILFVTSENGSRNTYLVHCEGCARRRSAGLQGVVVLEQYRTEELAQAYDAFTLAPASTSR
Description: as §1

T1 sequence (O15550 whole entry): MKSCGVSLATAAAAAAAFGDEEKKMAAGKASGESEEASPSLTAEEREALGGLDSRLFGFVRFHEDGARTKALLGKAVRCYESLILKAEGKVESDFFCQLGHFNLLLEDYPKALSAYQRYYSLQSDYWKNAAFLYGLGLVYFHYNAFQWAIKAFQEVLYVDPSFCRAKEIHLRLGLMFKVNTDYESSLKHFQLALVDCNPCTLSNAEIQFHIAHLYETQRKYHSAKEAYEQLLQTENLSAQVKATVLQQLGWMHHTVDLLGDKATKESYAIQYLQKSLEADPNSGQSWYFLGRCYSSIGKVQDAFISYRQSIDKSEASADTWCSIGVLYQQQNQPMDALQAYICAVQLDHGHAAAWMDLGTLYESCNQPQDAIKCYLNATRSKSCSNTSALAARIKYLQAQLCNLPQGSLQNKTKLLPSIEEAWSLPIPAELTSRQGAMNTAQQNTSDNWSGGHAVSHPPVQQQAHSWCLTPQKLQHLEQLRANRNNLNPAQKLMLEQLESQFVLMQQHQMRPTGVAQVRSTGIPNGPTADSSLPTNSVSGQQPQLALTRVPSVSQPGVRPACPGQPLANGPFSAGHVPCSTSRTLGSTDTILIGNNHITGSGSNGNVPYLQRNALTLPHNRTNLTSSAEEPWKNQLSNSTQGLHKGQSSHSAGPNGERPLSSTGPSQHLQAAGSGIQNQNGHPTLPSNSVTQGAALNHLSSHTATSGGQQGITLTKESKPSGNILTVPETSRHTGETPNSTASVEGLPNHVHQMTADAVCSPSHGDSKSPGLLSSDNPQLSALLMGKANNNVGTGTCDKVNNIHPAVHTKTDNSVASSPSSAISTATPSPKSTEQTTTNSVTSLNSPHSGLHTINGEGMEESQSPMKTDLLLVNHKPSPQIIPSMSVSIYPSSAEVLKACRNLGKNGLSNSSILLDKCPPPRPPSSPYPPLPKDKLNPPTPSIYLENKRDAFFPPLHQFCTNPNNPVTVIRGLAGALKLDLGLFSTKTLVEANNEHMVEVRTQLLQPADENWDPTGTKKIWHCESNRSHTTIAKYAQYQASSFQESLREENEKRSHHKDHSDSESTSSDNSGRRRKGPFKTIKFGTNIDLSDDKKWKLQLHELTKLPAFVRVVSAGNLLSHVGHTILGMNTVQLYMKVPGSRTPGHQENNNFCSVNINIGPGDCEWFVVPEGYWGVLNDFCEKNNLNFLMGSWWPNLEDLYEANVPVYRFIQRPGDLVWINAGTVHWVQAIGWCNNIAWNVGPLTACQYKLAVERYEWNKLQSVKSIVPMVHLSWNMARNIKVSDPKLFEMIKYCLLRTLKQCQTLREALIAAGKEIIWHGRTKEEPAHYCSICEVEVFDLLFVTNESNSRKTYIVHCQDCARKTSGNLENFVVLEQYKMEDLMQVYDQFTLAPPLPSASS

Row | Structure (SMILES) | IC50 (KDM6A) | IC50 (KDM2B) | IC50 (KDM4A) | IC50 (KDM6B)
1 | Nc1c(C(=O)O)ccnc1C(=O)O [Example 7, reference compound] | 930 nM | 160 nM | 490 nM | 7800 nM
2 | CCN(CCN(C)C)C(=O)CNCc1cc(C(=O)O)ccn1 [Example 9] | 1300 nM | 1600 nM | 350 nM | 4100 nM
3 | Cc1cc(Cl)ccc1COc1ccnn1-c1cc(C(=O)O)ccn1 [Example 11] | 74 nM | 660 nM | 1000 nM | 280 nM
4 | O=C(O)c1ccncc1Nc1nn(CCN2CCC(F)(F)CC2)c2ccc(F)cc12 [Example 13] | 140 nM | 2400 nM | 1100 nM | 400 nM
5 | CCN(CC)CCCCNCc1cc(C(=O)O)ccn1 [Example 18] | 5500 nM | 12000 nM | 390 nM | 27000 nM
